Source: patent publication US20080171370A1, “DETOXIFYING PRE-TREATED LIGNOCELLULOSE-CONTAINING MATERIALS” (Novozymes North America, Inc., priority 2006, published 2008)
“Also recorded” adds a separate entry of the source.

Legend:
[1] = system: RED STAR Ethanol Red yeast; experiment: Fermentation of detoxified fully unwashed pretreated corn stover (fuwPCS) filtrate, Example 1; assay type: cell-based; conditions: for average ethanol yield: 24 hours fermentation, 0.2 g/L yeast, 32° C., pH 5.0
Protocol: Yeast Preparation: Freeze-dried RED STAR™ Ethanol Red yeast re-hydrated in 10×YP media for 30 minutes at 32° C. It was dosed into the fermentations at a dose of 0.2 g/L.
Dilute acid steam exploded corn stover (PCS) was diluted with water and adjusted to pH 5.0 with NH4OH. The total solids (TS) level was 15 wt.-%. This sample was then saccharified for 63 hours at 50° C. with Cellutolytic Preparation A. Penicillin was added at a rate of 1 gl/L also added prior to saccharification was citrate buffer at a rate of 50 mL of 1 M citrate buffer per 100 ml of substrate. Following the saccharification step, the sample was filtered via a 0.2 micron Nalgene vacuum fitter system (Product # 8-000043-0803) to remove the solids and used for fermentation. The fuwPCS was then pipetted into separate sterile, 15 mL conical centrifuge tubes containing a small CO2 vent hole.
The pH was adjusted to about 2 using H2SO4; gallic acid was dosed at concentrations of 2 mM (GaA-L) and at 10 mM (GaA-H). The gallic acid was prepared by sonicating […] of garlic acid in 100 ml of de-ionized water. The broth was allowed to stand at 20° C. overnight and then readjusted to pH 5 using NaOH before adding yeast.
The dosing for amidase was carried out by treating with 5.6 Units/5 g substrate (AMD-L) and also 56 Units/5 g substrate (AMD-H). The amidase treated samples were brought to a pH of 7 with NaOH and allowed to sit in an oven at a temperature of 37° C. for 18 hours as a pre-treatment.
Fermentations were carried out in sterile 15 mL conical plastic centrifuge tubes at 32° C. for 48 hours at pH 5.0. A total of 5 grams of sample was fermented for each treatment. Treatments were run in triplicate.
Fermentation samples were collected after 24 hours for the 0.2 g/L yeast dose and analyzed for acetic acid and ethanol using an Agilent HPLC System with an analytical BIO-RAD Aminex HPX-87H column and a BIO-RAD Cation H refill guard column.

[2] = system: RED STAR Ethanol Red yeast; experiment: Fermentation of enzyme-detoxified fuwPCS filtrate at 37° C., Example 2; assay type: cell-based; conditions: detoxified 19 hours
Protocol: Dilute acid steam exploded corn stover (PCS) was diluted with water and adjusted to pH 5.0 with NH4OH. The total solids (TS) level was 16%. This sample was then saccharified for 72 hours at 50° C. with Cellulolytic Preparation A. Penicillin and citrate buffer were also added prior to saccharification. Following the saccharification step, the sample was filtered to remove the solids and the filtrate was used for fermentation. The fuwPCS was then pipetted into separate sterile, 15 mL conical centrifuge tubes containing a small CO2 vent hole.
Freeze-dried RED STAR™ Ethanol Red yeast was re-hydrated in 10×YP media for 30 minutes at 32° C. it was dosed into the fermentations at a dose of 0.2 g/L.
Filtered, unwashed PCS was detoxified for 19 hours using the optimal conditions for each enzyme. For amidase, the pH of the fuwPCS was first adjusted up to 7.0 using NaOH, the amidase was added at the tested dosages, and the tubes were incubated at 37° C. The pH of the fuwPCS was then readjusted to 5.0 using H2SO4 prior to fermentation. For the carbonic anhydrase the pH was left at 5.0, the enzyme was added and the tubes were incubated at 37° C. All enzymes were diluted with de-ionized water prior to dosing. Dosing ranges for each enzyme were as follows in units/mL of the final solution for amidase and kilo units/mL for carbonic anhydrase.
A total of 3.5 grams of sample was fermented for each treatment and the initial pH for all fermentations was 5.0. Treatments were run in triplicate. The final TS level was 13.7 wt.-%. These fermentations were run at a higher temperature of 37° C.
Fermentation samples were collected after 12 and 24 hours and analyzed for ethanol using an Agilent HPLC System with an analytical BIO-RAD Aminex HPX-87H column and a BIO-RAD Cation-H refill guard column.

O=C(O)c1cc(O)c(O)c(O)c1 [Gallic acid, 3,4,5-trihydroxybenzoic acid]
average ethanol yield ([1]; gallic acid high dose (GaA-H) 10 mM, pH about 2, 20° C. overnight): 17.8 g/L
average ethanol yield ([1]; gallic acid low dose (GaA-L) 2 mM, pH about 2, 20° C. overnight): 19.4 g/L
amount of acetic acid present in the fermentation ([1]; gallic acid versus control, FIG. 2): significant drop

amidase: amidase from Pseudomonas aeruginosa (Sigma Product # A6691)
effect on ethanol production by the yeast ([2]; all amidase doses tested (0.3-1.1-5.4-16.1), pH 7.0, 37° C., after 12 hours of fermentation): significant boosting effect
effect on ethanol production by the yeast ([2]; all amidase doses tested (0.3-1.1-5.4-16.1), pH 7.0, 37° C., after 24 hours of fermentation): boost in ethanol yield; also recorded: significant boosting effect
average ethanol yield ([1]; amidase high dose (AMD-H) 56 Units/5 g substrate, pre-treatment pH 7, 37° C., 18 hours): 23.6 g/L
average ethanol yield ([1]; amidase low dose (AMD-L) 5.6 Units/5 g substrate, pre-treatment pH 7, 37° C., 18 hours): 21.8 g/L

carbonic anhydrase: carbonic anhydrase from bovine erythrocytes (lyophilized powder, ≧2,500 W-A units/mg protein) Sigma Product # C3934
effect on ethanol production by the yeast ([2]; highest dose of carbonic anhydrase (33.3; 243 kilo units/g TS), pH 5.0, 37° C., after 12 hours of fermentation): boost in ethanol production; also recorded: significant boosting effects
effect on ethanol production by the yeast ([2]; highest dose of carbonic anhydrase (33.3; 243 kilo units/g TS), pH 5.0, 37° C., after 24 hours of fermentation): significant boosting effects
